Results on six compounds are retold here after patent US8623405B2, “Finely divided composition containing poorly water soluble substance” (Takeda Pharmaceutical Company Limited, priority 2005, dated 2014).

Common to all, as to assay type: physicochemical
Data set [1] in a line: Degree of crystallinity of composition after pulverization (powder X-ray diffraction, Vonk method). To be noted: after pulverization (freeze-dried pulverized suspension of Example 1). The protocol: A powder obtained by freeze-drying the pulverized suspension obtained in Example 1 was enclosed in a quartz glass capillary and measured using a powder X-ray diffraction measurement apparatus (Rigaku Corporation, ultraX TTR2-300), Cu rotating target, parallel beam method (50 kV, 300 mA), scanning angle 3-120 degrees, scan step 0.02 degree/counting time 0.6 sec. The degree of crystallinity was calculated from the obtained X-ray diffraction profile using the Vonk method.
The X-ray diffraction profiles were obtained by measurements using the above-mentioned measurement apparatuses and conditions.

Data set [2] can be described thus: Particle size measurement of pulverized suspensions (laser diffraction/scattering LA-920). To be noted: after pulverization (Example 1, ball mill with Kollidon 17PF and sodium lauryl sulfate). The source says:
The dispersion medium used for the measurement is usually water, but an aqueous solution of a substance other than the poorly water soluble substance contained in the composition and the like (for some purposes, buffer solutions at various pH levels, mimicked body fluid, 0.5% methylcellulose aqueous solution and the like) can also be used.
“90% frequency particle diameter” is a particle diameter corresponding to the 90% frequency of the above-described integral distribution curve and, in the present invention, means the particle diameter of 90% frequency (90% frequency particle diameter) of the composition dispersed in a liquid, as measured using a laser diffraction/scattering particle size distribution analyzer (LA-920, Horiba Ltd.).
As a dispersion medium, purified water was used.

Data set [3] is described as follows: Degree of crystallinity of composition after pulverization (powder X-ray diffraction, Vonk method). To be noted: before pulverization.
Data set [4] in a line: Particle size measurement of pulverized suspensions (laser diffraction/scattering LA-920).
Setting [5] is: after pulverization (Example 1, ball mill with Kollidon 17PF and sodium lauryl sulfate).
The mark [6] stands for this setting: before pulverization, substances used in Example 1.

As for `CCC1=C(C)CN(C(=O)NCCc2ccc(S(=O)(=O)NC(=O)N[C@H]3CC[C@H](C)CC3)cc2)C1=O` [glimepiride], the figures for the degree of crystallinity in data set [1] and in data set [3] were 68.7% and 73.7%, respectively. In addition, the turbulent factor in data set [1] is 2.249; in data set [3], 0.622. The compound further came in with a D90 in data set [2] of 0.55 μm. Also, the “particle size: D50” value in data set [4] (setting [5]) was found to be 0.39 μm; in data set [4] (setting [6]) it was 1.67 μm.

On to `CC(C(=O)O)c1cccc(C(=O)c2ccccc2)c1` (stereo not shown) [ketoprofen, Ketoprofen], for which, in data set [2], the D90 amounted to 0.77 μm. The “particle size: D50” value in data set [4] (setting [5]) stood at 0.50 μm.

As for `COC1=CC(=O)C[C@@H](C)[C@]12Oc1c(Cl)c(OC)cc(OC)c1C2=O` [griseofluvin, 7-chloro-2′,4,6-trimethoxy-6′-methylspiro[benzofuran-2(3H),1′-[2]cyclohexene]-3,4′-dione], the D90 in data set [2] was 0.50 μm. For the same compound, the “particle size: D50” value in data set [4] (setting [5]) turned out to be 0.35 μm; in data set [4] (setting [6]), 6.35 μm.

On to `FC(F)(F)c1ccc(/C=C/c2nc(COc3ccc(CCCCn4ccnn4)cc3)co2)cc1` [compound A, 1-(4-{4-[(2-{(E)-2-[4-(trifluoromethyl)phenyl]ethenyl}-1,3-oxazol-4-yl)methoxy]phenyl}butyl)-1H-1,2,3-triazole], for which the figures for the degree of crystallinity in data set [1] and in data set [3] were 61.3% and 74.7%, respectively. Further, the turbulent factor was 1.412 in data set [1] and −0.163 in data set [3]. The compound also displayed a D90 in data set [2] of 0.68 μm. Besides, the “particle size: D50” value in data set [4] (setting [5]) turned out to be 0.42 μm; in data set [4] (setting [6]), 5.68 μm.

`COc1cc(NS(=O)(=O)c2ccc(N)cc2)nc(OC)n1` [sulfadimethoxine] showed a D90 in data set [2] of 0.65 μm. In addition, the “particle size: D50” value in data set [4] (setting [5]) is 0.44 μm.

On to `COc1ccc2c(c1)c(CC(=O)O)c(C)n2C(=O)c1ccc(Cl)cc1` [indomethacin], for which the figures for the degree of crystallinity in data set [1] and in data set [3] were 89.8% and 99.9%, respectively. In addition, the turbulent factor in data set [1] is 0.793; in data set [3] it was −0.001. In addition, the D90 in data set [2] stood at 0.50 μm. The results for the “particle size: D50” value in data set [4] (setting [5]) and in data set [4] (setting [6]) were 0.36 μm and 9.61 μm, respectively.
